Measurements reported in publication PMC6100259, “Insights into Structure-Activity Relationships of 3-Arylhydrazonoindolin-2-One Derivatives for Their Multitarget Activity on β-Amyloid Aggregation and Neurotoxicity” (Molecules : A Journal of Synthetic Chemistry and Natural …, 2018).
≈ marks a conversion by molar mass, not a printed value. Like-named read-outs stand apart in the source and are kept apart here.

Legend:
Aβ40 peptide [1] = molecular target: T1, Aβ40 peptide (Homo sapiens, UniProt P05067); experiment: Inhibition of Aβ40 aggregation, ThT fluorescence-based method; assay type: biochemical
T1 construct: we preferred using Aβ40 peptide
Procedure: In vitro inhibition of Aβ aggregation was assessed through a ThT fluorescence-based method, with the use of 2% 1,1,1,3,3,3-hexafluoroisopropanol (HFIP) as aggregation enhancer. In this medium-throughput assay, we preferred using Aβ40 peptide, being more manageable than Aβ42 and less prone to the formation of preaggregates. Samples of Aβ were co-incubated with test molecules in PBS at 100 µM concentration and the antiaggregating activities were measured after 2 h of incubation at 25 °C. For compounds showing >80% Aβ40 aggregation inhibition, IC50s were determined.
(§1) The spectrofluorimetric assays, measuring ThT fluorescence in the presence of Aβ, were done as previously described. Briefly, coincubation samples were prepared as described above (Section 2.2 and Section 2.3) in 96-well black, non-binding microplates (Greiner Bio-One GmbH, Frickenhausen, Germany). Fluorimetric reads were performed in a multiplate reader Infinite M1000 Pro (Tecan, Cernusco sul Naviglio, Italy). Each concentration point was run in triplicate. CD ellipticity measures were performed as detailed in ref. [20], following the increase of the negative band at 215 nm as indicative of β-sheet arrangement.

[2] = Lipophilicity by RP-HPLC (log k'w); assay type: physicochemical; details: RP-HPLC C18, MeOH/10 mM ammonium formate buffer pH 4.5, extrapolated to 100% aqueous mobile phase, 25 °C
Procedure: To place on a more quantitative basis the above SAR trends, the lipophilicity of a number of isatin arylhydrazone derivatives was measured by an RP-HPLC method. The polycratic capacity factors (log k’w) were determined (details in the Experimental Section). Lipophilicity descriptors (i.e., 1-octanol–water partition coefficients) were also calculated (CLOGPs) using two computational tools (Bio-Loom software, v. 1.7 and ACDLabs software, release 10.0). The ACDLabs software was used also for calculating descriptors of polarizability and size, namely molar refractivity (CMR) and molar volume (MV). The experimental lipophilicity parameters (log k’w), along with CMR and MV, are reported in Table 6 for 18 compounds achieving finite IC50s (<100 µM) in the Aβ aggregation assay.
The lipophilicity parameters were determined by an RP-HPLC technique. Methanol solutions of the investigated hydrazone compounds (0.5 mg/mL) were injected into an Agilent 1260 infinity HPLC system (Agilent Technologies Italia, Milan), equipped with a diode array detector (DAD), and a Phenomenex Kinetex C18 column (150 × 4.6 mm, 5 μ, Phenomenex Italy s.r.l., Castel Maggiore, BO, Italy), and eluted at different mobile phase compositions (0.05 increments of MeOH volume fraction in 10 mM ammonium formate buffer at pH 4.5, ranging ϕ between 0.85 and 0.30). All RP-HPLC measurements were carried out at 25 ± 1 °C, at a flow rate of 1.0 mL/min, and at 254 nm wavelength.
The logarithm of capacity factors (log k′ = log (tR − t0)/t0) of each compound at different mobile phase compositions have been calculated; tR represents the retention time of the solute and t0 is the column dead time, measured as the elution time of a KNO3 solution in MeOH. For each compound, the log k′ values increased linearly with decreasing MeOH volume fraction. Logarithms of capacity factors extrapolated to the 100% aqueous mobile phase (log k′w) were calculated from the linear regressions on at least five data points (r^2 > 0.975).

Aβ40 peptide [3] = molecular target: T1, Aβ40 peptide; parameters: method as in PMID 21144622; details: read-out: IC50 inhibition of Aβ40 aggregation; hit compound, previously reported; cited from earlier work
AChE = tested on: AChE; parameters: method as in PMID 28801274; details: read-out: IC50 AChE inhibition; cited from earlier work
[4] = parameters: method as in PMID 28801274; details: pH 7.4 and 37 °C; cited from earlier work
[5] = parameters: method as in PMID 28801274; details: Tris/HCl buffer, pH 7.4 at 25 °C; cited from earlier work
[6] = Aqueous solubility in Tris/HCl buffer; assay type: physicochemical; details: pH 7.4 at 25 °C
Description: Based on data in Table 1, Table 2, Table 3, Table 4 and Table 5, compound 28 was selected for further biological and biophysical studies, aimed at elucidating the mechanism of disruption of Aβ aggregation, and evaluating the activity in biochemical assays related to neurodegeneration, and cytoprotection in a cell model of Aβ toxicity. Starting from the evidence that a bulky substituent led to a net improvement of antiaggregating activity (Table 5), we chose the N^1-cyclopropyl derivative 28 as the best compromise between in vitro activity and aqueous solubility.

Aβ42 peptide = Aβ42 peptide (Homo sapiens, UniProt P05067); experiment: Kinetics of Aβ42 fibrillization (ThT fluorescence and CD); assay type: biochemical; details: 50 µM Aβ42 with 20 µM compound, PBS 2% ethanol, 37 °C, after one week
Procedure: For ThT and circular dichroism (CD) time-course measures of Aβ aggregation (50 µM), alone or in the presence of 28 (20 µM), samples were prepared in PBS containing 2% v/v ethanol as the cosolvent, and incubated at 37 °C. Aβ42 peptide was preferred, being the principal responsible of amyloid burden in AD brain. Kinetics of amyloid aggregation of Aβ42 was followed by means of ThT fluorescence and CD absorption. In the latter case, we monitored the increase of the negative band at 215 nm, probing the random coil to β-sheet transition in folding peptide. Results depicted in Figure 4 show a fast fibrillization of self-aggregating peptide (dotted black line), with fibrils already detectable in large amount in the first 48 h of incubation.
as §1

SH-SY5Y cells [7] = experiment: Protection from Aβ42-induced cytotoxicity, MTT assay; assay type: cell-based, human; details: 5 µM Aβ42 co-incubated with equimolar 5 µM compound, within two days
Procedure: (§2) Protection from Aβ42-induced cytotoxicity was measured for compound 28 in a conventional cell-based assay, measuring cell viability by means of MTT reduction. Antioxidant activity of 28 was assessed in an H2O2-induced oxidation cell model. Reactive oxygen species (ROS) production was detected by means of a spectrofluorometric measure of the fluorescent probe 2′,7′-dichlorofluorescein (DCF), formed by oxidation of 2′,7′-dichlorodihydrofluorescein (DCFH). In both assays, human SH-SY5Y neuroblastoma cell line was used.
Cytoprotection from Aβ42-induced neurotoxicity and from ROS generation was assessed in SH-SY5Y cells as already described. At least three independent experiments with six replicates (n ≥ 18) were carried out, and the results were averaged. Briefly, for MTT assay, SH-SY5Y cells were cultured in DMEM-Dulbecco’s modified Eagle’s medium (Sigma-Aldrich), grown to 70% confluence and seeded for experiment in 96-well plates at a density of 10,000 cells/well. Cultured cells were added with a DMEM solution of Aβ42, alone or in mixture with 28 (5 μM final concentration of both) and incubated at 37 °C in 5% CO2. […] After removal of solution and addition of DMSO, the absorbance of product formazan produced from MTT was measured at 570 nm using a multilabel plate counter Victor3 V (Perkin Elmer, Milan, Italy), with DMSO medium as the blank solution.

SH-SY5Y cells [8] = experiment: Antioxidant activity, H2O2-induced ROS production, DCFH-DA assay; assay type: cell-based; details: Homo sapiens, 20 µM compound, 100 µM hydrogen peroxide, read-out: ROS scavenging, maximum effect relative to effect of 100 µM quercetin
Procedure: as §2
Intracellular ROS production was evaluated using an oxidation-sensitive fluorescent probe, 2′,7′-dichlorodihydrofluorescin diacetate (DCFH-DA; Sigma-Aldrich). Viable SHSY5Y cells were seeded in a black 96-well cell culture plate for 24 h, then the cells were incubated in DMEM supplemented with different concentration (0 to 20 μM) of 28 for 1 h. After washing, DCFH-DA (50 μM final concentration) was added directly to each well, and the plate was incubated at 37 °C in 5% CO2 for 0.5 h. […] The formation of fluorescent dichlorofluorescein (DCF) due to oxidation of DCFH in the presence of ROS was read directly in each well at an excitation wavelength of 485 nm and an emission wavelength of 530 nm using a multilabel plate reader Victor3 V (Perkin Elmer), with DMSO medium as the control.

T1 sequence (P05067 672-711 limits assumed): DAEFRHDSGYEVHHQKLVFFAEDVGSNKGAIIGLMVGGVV
Chain of Aβ42 peptide (P05067 672-713 limits assumed): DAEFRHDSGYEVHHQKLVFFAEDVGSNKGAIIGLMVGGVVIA

SMILES | IC50 (Aβ40 peptide [1]; Aβ40 aggregation inhibition, read-out: pIC50, Aβ antiaggregating potency (converted)) [nM] | log k'w [2] | IC50 (Aβ40 peptide [3]) [nM] | IC50 (AChE) [nM] | half-life [4] [h] | solubility [5] [µM] | IC50 (Aβ40 peptide [1]) [nM] | solubility [6] [µM] | fibril content compared with that of control peptide (Aβ42 peptide) | cell viability (MTT reduction) (SH-SY5Y cells [7]) | Emax at 20 µM (SH-SY5Y cells [8]) [%]
COc1ccc2c(c1)/C(=N/Nc1ccc(C(C)C)cc1)C(=O)N2 [Compound 1, (3Z)-5-methoxy-1H-indole-2,3-dione 3-[(4-isopropylphenyl)hydrazone]] | 398 | 5.44 | 430 ± 40 | 6250 | 24 | 71 (≈ 22 µg/mL) |  |  |  |  | 
COc1ccc2c(c1)/C(=N/Nc1ccc(C(C)C)cc1)C(=O)N2C1CC1 [Compound 28, (Z)-1-Cyclopropyl-3-(2-(4-isopropylphenyl)hydrazono)-5-methoxyindolin-2-one] |  | 6.36 |  |  |  |  | 800 ± 130 | 21 (≈ 7.34 µg/mL) | about 30% | fully viable | ~50
